The source of these data is patent US20240082342A1, “PEPTIDE THERAPEUTICS FOR INCREASING LUNG CELL VIABILITY” (BOARD OF REGENTS, THE UNIVERSITY OF TEXAS SYSTEM, priority 2018, published 2024).

The conditions of series [1]: mice; cited from earlier work.
Series [2] has as its system A2Cs of WT mice exposed to tobacco smoke. The series can be described thus: Chronic passive tobacco smoke (20 weeks) lung injury in WT mice, A2C telomere analyses. As to conditions: 20 weeks smoke. In kind it is in vivo, mouse. The method, then:
Relative telomere length was also analyzed by qPCR analysis of the genomic DNA as described by Callicott R J et al., (Comp Med 2006; 56:17-22) and Cawthon RM (Nucleic Acids Res 2002; 30:e47-e47). The […] gene was served as the control.
To test the effect of chronic TS exposure induced lung injury, these mice were exposed to passive TS from 40 research cigarettes over a 4 h period 5 days/week for 20 weeks (˜90 mg/m3 total solid particulates) using a mechanical smoking chamber (Teague Enterprises, Davis, CA) as described earlier. (Bhandary et al, 2015). Control mice were kept in ambient air. After sixteen weeks of daily passive TS exposure, mice with TS exposure injury were treated with CSP7 at a dosage of 1.5 mg/kg body weight daily 5 days/week for the next four weeks. These mice were continued with daily exposure of 4 h of TS during CSP7 treatment. At the end of the experiment (after 20 weeks of TS exposure), the mice were euthanized, and lungs were utilized for further analyses. To expand the local delivery options of CSP7 to directly treat the damaged lung by air-jet milling for dry powder inhalation (DPI). Mice exposed to TSE were treated with CSP7 using a rotating brush generator for 15 min daily for 7 days. Fourteen days later, […] were subjected to daily inhalation of micronized CSP7 (0.05 mg/kg/d) DP through air-jet-milling for seven consecutive days using a rotating brush exposure system. The rotating brush exposure system gave a consistent minimal chamber concentration of 0.1 mg/L. In order to match dosing of DP inhalation, animal exposure times were adjusted to approximately 15 minutes and an estimated dose of 0.05 mg/kg/d or 1.00 microgram/lung was administered. […]
(§1) Measurement of terminal restriction fragment (telomeric) length. For the determination of telomeric length, the TeloTTAGGG Telomere Length Assay Kit (Roche Diagnostics GmbH) was used. Briefly, genomic DNA was isolated and digested with Hinf1/Rsa. The digested DNA fragments were then separated by electrophoresis on agarose gel followed by Southern blot transfer. The membrane was then hybridized with a telomere specific digoxigenin (DIG)-labelled probe, incubated with anti-DIG alkaline phosphatase, and documented with chemiluminescence detection in gel-doc unit (Bio-Rad Laboratories). Telomeric length was identified by comparing with the pre-labelled molecular weight marker. The relative telomere length was calculated according to the protocol provided. In addition, relative telomere length was analyzed by qPCR analysis of the genomic DNA. (Cawthon, Nucleic Acids Res 2002, 30:e47-e47; Alder et al, Proc Natl Acad Sci USA 2015, 112:5099-5104.) The 36B4 gene was served as the control.

Series [3] has as its system A2Cs of WT mice with 8X-BLM-induced PF. Nature of the series: Repeated bleomycin (8X-BLM) induced PF in WT mice, A2C telomere analyses. It counts as in vivo, mouse. The protocol: (§2) To analyze the effect of BLM, mice were exposed to BLM (40 μg/20 g body weight) once per two week for 16 weeks. Control mice were exposed to normal saline. At 14th week the peptide treatment at a dosage of 30 μg/20 g body weight was initiated and continued on a daily basis for the next 14 days. At the end of the experiment, the mice were euthanized and used for the experiments.
(§3) To evaluate the effect of CSP7 against chronic BLM-induced PF, the mice were exposed to BLM (40 μg/20 g body weight) once every two weeks for 16 weeks as described elsewhere. (Tiwari et al, 2016). Control mice were exposed to normal saline. Fourteen weeks later the CSP7 at a dosage of 1.5 mg/kg body weight was administered by IP injection and continued daily basis for the next two weeks as described elsewhere. (Tiwari et al, 2016; Shetty et al, 2008b). At the end of the experiment, the mice were euthanized and lung tissues and isolated A2Cs from the extracted lung tissues were used for further analysis.
Detection of telomerase activity. Telomerase activity was detected using a PCR-based telomeric repeat amplification protocol (TRAP) method using the TRAPeze Telomerase Detection Kit (Intergen, Purchase, NY, USA). Briefly, the cells were lysed in CHAPS lysis buffer and quantified by BCA method, and equal quantity of the protein samples was combined with the reaction mix in RNase-free PCR tubes. The PCR amplification was then performed following instruction of the manufacturer. The final PCR product was loaded onto a 12.5% non-denaturing polyacrylamide gel and subjected to electrophoresis. The polyacrylamide gel was stained with ethidium bromide and documented using a gel-doc unit (Bio-Rad Laboratories). The relative quantities of telomerase activity for each sample were calculated according to the instructions provided in the kit.
as §1

In series [4] the test system is A2Cs of PAI-1^−/− mice. Nature of the series: Tobacco smoke or repeated bleomycin exposure of PAI-1-/- mice. It counts as in vivo, mouse. As to conditions: for IHC TRF1 or TRF2 antigen expression / telomerase enzyme activity (trapeze) / telomere length: PAI-1-/- mice; for IHC TRF1 or TRF2 antigen expression / telomerase enzyme activity (trapeze): TS; for telomere length: smoke or BLM; for p53, Acp53, S15p53, cleaved caspase-3, β-galactosidase, SIAH1/2, PNUTS, TRF1, TRF2, TERT (Western blot): 8X-BLM; for telomere length (qPCR): 20 weeks TS; for p53, Acp53, S15p53, cleaved caspase-3, β-galactosidase in AT2 cells (Western blot): CS 20 weeks. The method, then: To analyze the effect of cigarette smoke, mice were exposed to passive smoke from 40 research cigarettes over a 2-hour period once (2 h) or twice (4 h) daily for 5 days/week for 20 weeks (˜90 mg/m^3 total solid particulates) using a mechanical smoking chamber (Teague Enterprises, Davis, CA). Control mice were exposed to ambient air. At the 18th week, peptide treatment at a dosage of 30 μg/20 g body weight was initiated and continued on a daily basis for the next 14 days. At the end of the experiment, the mice were euthanized and used for the experiments.
as §2
To test the effect of chronic TS exposure induced lung injury, these mice were exposed to passive TS from 40 research cigarettes over a 4 h period 5 days/week for 20 weeks (˜90 mg/m3 total solid particulates) using a mechanical smoking chamber (Teague Enterprises, Davis, CA) as described earlier. (Bhandary et al, 2015). Control mice were kept in ambient air. After sixteen weeks of daily passive TS exposure, mice with TS exposure injury were treated with CSP7 at a dosage of 1.5 mg/kg body weight daily 5 days/week for the next four weeks. These mice were continued with daily exposure of 4 h of TS during CSP7 treatment. At the end of the experiment (after 20 weeks of TS exposure), the mice were euthanized, and lungs were utilized for further analyses. To expand the local delivery options of CSP7 to directly treat the damaged lung by air-jet milling for dry powder inhalation (DPI). Mice exposed to TSE were treated with CSP7 using a rotating brush generator for 15 min daily for 7 days. Fourteen days later, BLM mice were subjected to daily inhalation of micronized CSP7 (0.05 mg/kg/d) DP through air-jet-milling for seven consecutive days using a rotating brush exposure system. The rotating brush exposure system gave a consistent minimal chamber concentration of 0.1 mg/L. In order to match dosing of DP inhalation, animal exposure times were adjusted to approximately 15 minutes and an estimated dose of 0.05 mg/kg/d or 1.00 microgram/lung was administered.
as §3
On the technique in general: In western blotting, separated proteins are transferred to a membrane and probed.

“Also recorded” adds a separate entry of the source.

As to “DGIWKASFTTFTVTKYWFYR (listed as Homo sapiens) [CSP, 20 residue caveolin-1 scaffolding domain peptide]”, the tolerability result in series [1] is reported as “well-tolerated”.

On to “WGIDKAFFTTSTVTYKWFRY [CP, scrambled control peptide with the same amino acid composition as CSP, reference compound]”, for which the “SIAH-1 expression in A2Cs” value in series [2] is “still showed elevated p53 and SIAH-1”. Also, in series [3] (8X-BLM PF), the TERT enzyme activity result is listed as “still displayed shortened telomere”; the “TRF1, TRF2, PNUTS and TERT expression in A2Cs” value is given as “still harbor A2Cs with shortened telomere”. Also, in series [4], the “IHC TRF1 or TRF2 antigen expression” value was “minimal change in TRF1 or TRF2 antigen expression”, the “telomerase enzyme activity (trapeze)” value is reported as “no significant change activity” and the telomere length result is on record as “no significant change in telomere length”. In series [4] (PAI-1-deficient mice), the “p53, Acp53, S15p53, cleaved caspase-3, β-galactosidase, SIAH1/2, PNUTS, TRF1, TRF2, TERT (Western blot)” value is “little or no difference”; the “telomere length (qPCR)” value was “minimal effect on telomere length”; the “p53, Acp53, S15p53, cleaved caspase-3, β-galactosidase in AT2 cells (Western blot)” value is reported as “little or no difference”.

Consider “FTTFTVT (listed as Homo sapiens) [CSP7, heptapeptide fragment of the caveolin-1 scaffolding domain peptide CSP]”, for which, in series [2], the “IHC of lung sections for TRF2, p53, PAI-1, TRF1” value was “restoration of TRF2 expression with reduction in p53 and PAI-1 expression”; the “SIAH-1 expression in A2Cs” value is given as “Downregulation of SIAH-1 was significantly more; also recorded: markedly downregulated”; the “TRF2 and TERT expression in A2Cs” value is “restoration of TRF2 and TERT expression”; the “p53, cleaved caspase-3 and β-galactosidase expression in A2Cs (Western blot)” value is recorded as “significant decrease; also recorded: markedly suppressed”. Moreover, the “TERT enzyme activity (TRAPeze assay)” value in series [2] (vs CP group) is recorded as “significantly higher”. In addition, the “relative telomere length of A2Cs (qPCR), telomere shortening” value in series [2] (vs control peptide CP) is reported as “significant resistance in telomere shortening”. In series [3] (8X-BLM PF), the TERT enzyme activity result was “significantly reversed”; the “TRF1, TRF2, PNUTS and TERT expression in A2Cs” value was “reversed”; the “p53, PAI-1, SIAH1/2, caspase-3 activation, β-galactosidase in A2Cs” value was “suppression”. The “IHC of lung sections for TRF2, p53, PAI-1, TRF1” value in series [3] (8X-BLM PF (FIG. 25E)) was “restoration of TRF2 expression with reduction in p53, PAI-1 and TRF1”. In addition, the “telomere length of A2Cs (qPCR)” value in series [3] (8X-BLM PF, treated two weeks) is given as “improved”. In addition, in series [4], the “IHC TRF1 or TRF2 antigen expression” value is given as “minimal change in TRF1 or TRF2 antigen expression”, the “telomerase enzyme activity (trapeze)” value is on record as “no significant change activity” and the telomere length entry is on record as “no significant change in telomere length”. For the same substance, in series [4] (PAI-1-deficient mice), the “p53, Acp53, S15p53, cleaved caspase-3, β-galactosidase, SIAH1/2, PNUTS, TRF1, TRF2, TERT (Western blot)” value is “little or no difference”; the “telomere length (qPCR)” value was “minimal effect on telomere length”; the “p53, Acp53, S15p53, cleaved caspase-3, β-galactosidase in AT2 cells (Western blot)” value is “little or no difference”. Moreover, the “expression of p53 in A2Cs” value in series [4] (PAI-1-deficient mice, TS or BLM) is on record as “minimal effect”. Further, the tolerability result in series [1] is recorded as “well-tolerated”.
